These results are taken from US9828385B2, “Spiro-oxazolones” (Hoffmann-La Roche Inc., priority 2014, dated 2017).

This experiment has as its target T1, human V1a receptor (Homo sapiens, UniProt P37288).
T1 construct: expressed in transfected cells; host or cells: HEK293 cells, transiently transfected; cell membranes
The experiment in a line: human V1a receptor binding studies (3H-Vasopressin, SPA beads). To be noted: membranes of HEK293 cells transiently transfected with human V1a receptor, Ki by Cheng-Prussoff from IC50, read-out: pKi hV1a (converted). An outline of the steps: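 Membranes from transiently transfected HEK293 cells expressing cloned human V1a receptor, on yttrium silicate SPA beads, competed against 4 nM 3H-vasopressin (added stock concentration) in Tris buffer with NaCl, KCl, CaCl2, MgCl2 for 1 h at room temperature. Nonspecific binding with cold vasopressin; IC50 by nonlinear fit, Ki via Cheng-Prusoff.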

The structures appear in SMILES notation.

T1 sequence (P37288 whole entry): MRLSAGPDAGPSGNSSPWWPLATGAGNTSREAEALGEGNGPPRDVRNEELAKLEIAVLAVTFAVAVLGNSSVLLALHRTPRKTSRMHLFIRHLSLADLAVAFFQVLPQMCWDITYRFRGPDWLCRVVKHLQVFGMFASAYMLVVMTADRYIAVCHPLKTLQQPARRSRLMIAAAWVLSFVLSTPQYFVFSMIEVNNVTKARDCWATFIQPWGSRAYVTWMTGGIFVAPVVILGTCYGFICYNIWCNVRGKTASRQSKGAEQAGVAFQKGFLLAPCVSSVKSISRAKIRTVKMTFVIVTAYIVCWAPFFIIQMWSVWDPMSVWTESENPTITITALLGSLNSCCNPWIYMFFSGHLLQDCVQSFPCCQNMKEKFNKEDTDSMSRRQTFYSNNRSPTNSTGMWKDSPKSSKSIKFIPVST

As to `O=C1OC2(CCN(C3=NC(=O)C(C(O)c4ccc(Cl)cc4)O3)CC2)c2ccccc21` (single isomer, unassigned) [Example 51, 1′-{-5-[(4-Chlorophenyl)(hydroxy)methyl]-4-oxo-4,5-dihydro-1,3-oxazol-2-yl}-3H-spiro[2-benzofuran-1,4′-piperidin]-3-one diastereomer a, enantiomer B], the Ki is 158 nM.
To `O=C1OC2(CCN(C3=NC(=O)C(Cc4ccccc4)O3)CC2)c2ccccc21` (single isomer, unassigned; enantiomer b) [Example 21, 1′-[5-Benzyl-4-oxo-4,5-dihydro-1,3-oxazol-2-yl]-3H-spiro[2-benzofuran-1,4′-piperidin]-3-one enantiomer B] belongs 5.01 nM; to `C=C(CC1OC(N2CCC3(CC2)OCc2ccccc23)=NC1=O)C(F)(F)F` (stereo not drawn) [Example 10, 2-(1′H,3H-Spiro[2-benzofuran-1,4′-piperidin]-1′-yl)-5-[2-(trifluoromethyl)prop-2-en-1-yl]-1,3-oxazol-4(5H)-one], 3.98 nM; to `CCCCC1OC(N2CCC3(CC2)OCc2ccccc23)=NC1=O` (single isomer, unassigned; (+)) [Example 4, (+)-5-Butyl-2-(1′H,3H-spiro[2-benzofuran-1,4′-piperidin]-1′-yl)-1,3-oxazol-4(5H)-one], 5.01 nM.
To `CC1(CC2CCCO2)OC(N2CCC3(CC2)OCc2ccccc23)=NC1=O` (stereo not drawn) [Example 101, 5-Methyl-2-(1′H,3H-spiro[2-benzofuran-1,4′-piperidin]-1′-yl)-5-(tetrahydrofuran-2-ylmethyl)-1,3-oxazol-4(5H)-one] belongs 200 nM.
On to `O=C1N=C(N2CCC3(CC2)OCc2ccccc23)OC12CCN(CC(F)F)CC2` [Example 136, 8-(2,2-Difluoroethyl)-2-(1′H,3H-spiro[2-benzofuran-1,4′-piperidin]-1′-yl)-1-oxa-3,8-diazaspiro[4.5]dec-2-en-4-one], for which the Ki was 316 nM.
Regarding `CC1(CC2CCCC2)OC(N2CCC3(CC2)OCc2ccccc23)=NC1=O` (single isomer, unassigned; (-)) [Example 78, (−)-5-(Cyclopentylmethyl)-5-methyl-2-(1′H,3H-spiro[2-benzofuran-1,4′-piperidin]-1′-yl)-1,3-oxazol-4(5H)-one], the Ki is 100 nM.
With `O=C1N=C(N2CCC3(CC2)OCc2ccccc23)OC12CC=C(CO)C2` (stereo not drawn) [Example 119, 7-(Hydroxymethyl)-2-(3H-spiro[isobenzofuran-1,4′-piperidine]-1′-yl)-1-oxa-3-azaspiro[4.4]nona-2,7-dien-4-one] the figure was 1000 nM.
To `CC(c1ccccc1)C1(C)OC(N2CCC3(CC2)OCc2ccccc23)=NC1=O` (single isomer, unassigned; diastereomer a) [Example 109, (−)-5-Methyl-5-(1-phenylethyl)-2-(1′H,3H-spiro[2-benzofuran-1,4′-piperidin]-1′-yl)-1,3-oxazol-4(5H)-one diastereomer a] belongs 50.1 nM.
In the case of `O=C1OC2(CCN(C3=NC(=O)C(Cc4ccccc4)O3)CC2)c2ccc(F)cc21` (stereo not drawn) [Example 27, 1′-(5-Benzyl-4-oxo-4,5-dihydro-1,3-oxazol-2-yl)-5-fluoro-3H-spiro[2-benzofuran-1,4′-piperidin]-3-one], the Ki is 15.8 nM.
On to `CC1(C(O)c2ccccc2)OC(N2CCC3(CC2)OCc2ccccc23)=NC1=O` (stereo not drawn) [Example 90, 5-[Hydroxy(phenyl)methyl]-5-methyl-2-(1′H,3H-spiro[2-benzofuran-1,4′-piperidin]-1′-yl)-1,3-oxazol-4(5H)-one], for which the Ki is 126 nM.
With `O=C1N=C(N2CCC3(CC2)OCc2ccccc23)OC1(Cc1ccc(Cl)cc1)Cc1ccc(Cl)cc1` [Example 94, 5,5-bis(4-Chlorobenzyl)-2-(1′H,3H-spiro[2-benzofuran-1,4′-piperidin]-1′-yl)-1,3-oxazol-4(5H)-one] the figure was 1 nM; with `CC1(Cc2ccc(Cl)nc2)OC(N2CCC3(CC2)OCc2ccccc23)=NC1=O` (stereo not drawn) [Example 82, 5-[(6-Chloropyridin-3-yl)methyl]-5-methyl-2-(1′H,3H-spiro[2-benzofuran-1,4′-piperidin]-1′-yl)-1,3-oxazol-4(5H)-one], 50.1 nM; with `CC1(Cc2ccc(Cl)s2)OC(N2CCC3(CC2)OCc2ccccc23)=NC1=O` (stereo not drawn) [Example 85, 5-[(5-Chlorothiophen-2-yl)methyl]-5-methyl-2-(1′H,3H-spiro[2-benzofuran-1,4′-piperidin]-1′-yl)-1,3-oxazol-4(5H)-one], 5.01 nM.
With `CCOCC1(C)OC(N2CCC3(CC2)OCc2ccccc23)=NC1=O` (single isomer, unassigned; (+)) [Example 96, (+)-5-(Ethoxymethyl)-5-methyl-2-(1′H,3H-spiro[2-benzofuran-1,4′-piperidin]-1′-yl)-1,3-oxazol-4(5H)-one] the figure was 251 nM; with `O=C1N=C(N2CCC3(CC2)OCc2ccccc23)OC1C(O)c1ccccc1` (single isomer, unassigned) [Example 37, 5-(Hydroxy(phenyl)methyl)-2-(1′H,3H-spiro[2-benzofuran-1,4′-piperidin]-1′-yl)-1,3-oxazol-4(5H)-one diastereomer a, enantiomer B], 126 nM.
To `CCCCC1OC(N2CCC3(CC2)OCc2ccccc23)=NC1=O` (single isomer, unassigned; (-)) [Example 3, (−)-5-Butyl-2-(1′H,3H-spiro[2-benzofuran-1,4′-piperidin]-1′-yl)-1,3-oxazol-4(5H)-one] belongs 50.1 nM.
For the molecule `CC1(Cc2ccccc2)OC(N2CCC3(CC2)OC(=O)c2ccccc23)=NC1=O` (single isomer, unassigned; enantiomer b) [Example 73, 1′-[5-Benzyl-5-methyl-4-oxo-4,5-dihydro-1,3-oxazol-2-yl]-3H-spiro[2-benzofuran-1,4′-piperidin]-3-one enantiomer B], the Ki is 251 nM.
With `C=CCC1(CC=C)OC(N2CCC3(CC2)OCc2ccccc23)=NC1=O` [Example 58, 5,5-Di(prop-2-en-1-yl)-2-(1′H,3H-spiro[2-benzofuran-1,4′-piperidin]-1′-yl)-1,3-oxazol-4(5H)-one] the figure was 50.1 nM; with `O=C1OC2(CCN(C3=NC(=O)C(Cc4ccccc4)O3)CC2)c2cccc(F)c21` (stereo not drawn) [Example 30, 1′-(5-Benzyl-4-oxo-4,5-dihydro-1,3-oxazol-2-yl)-4-fluoro-3H-spiro[2-benzofuran-1,4′-piperidin]-3-one], 200 nM.
In the case of `O=C1OC2(CCN(C3=NC(=O)C(C(O)c4ccc(Cl)cc4)O3)CC2)c2ccccc21` (single isomer, unassigned) [Example 53, 1′-{-5-[(4-Chlorophenyl)(hydroxy)methyl]-4-oxo-4,5-dihydro-1,3-oxazol-2-yl}-3H-spiro[2-benzofuran-1,4′-piperidin]-3-one diastereomer b, enantiomer B], the Ki is 158 nM.
As to `CC1(CN2CCCC2)OC(N2CCC3(CC2)OCc2ccccc23)=NC1=O` (stereo not drawn) [Example 98, 5-Methyl-5-(pyrrolidin-1-ylmethyl)-2-(1′H,3H-spiro[2-benzofuran-1,4′-piperidin]-1′-yl)-1,3-oxazol-4(5H)-one], the Ki was 251 nM.
As for `O=C1N=C(N2CCC3(CC2)OCc2ccccc23)OC1C(F)c1ccc(Cl)cc1` (single isomer, unassigned) [Example 47, 5-((4-Chlorophenyl)fluoromethyl)-2-(1′H,3H-spiro[2-benzofuran-1,4′-piperidin]-1′-yl)-1,3-oxazol-4(5H)-one diastereomer a, enantiomer B], the Ki is 20 nM.
To `CC1=CCC2(C1)OC(N1CCC3(CC1)OCc1ccccc13)=NC2=O` (stereo not drawn) [Example 114, 7-Methyl-2-(1′H,3H-spiro[2-benzofuran-1,4′-piperidin]-1′-yl)-1-oxa-3-azaspiro[4.4]nona-2,7-dien-4-one] belongs 12.6 nM; to `C#CCC1(CC(=C)C(=O)OCC)OC(N2CCC3(CC2)OCc2ccccc23)=NC1=O` (stereo not drawn) [Example 62, Ethyl 2-((4-oxo-5-(prop-2-ynyl)-2-(3H-spiro[isobenzofuran-1,4′-piperidine]-1′-yl)-4,5-dihydrooxazol-5-yl)methyl)acrylate], 631 nM; to `O=C1N=C(N2CCC3(CC2)OCc2ccccc23)OC1C(O)c1ccc(Cl)cc1` (single isomer, unassigned; diastereomer a) [Example 42, (−)-5-[(4-Chlorophenyl)(hydroxy)methyl]-2-(1′H,3H-spiro[2-benzofuran-1,4′-piperidin]-1′-yl)-1,3-oxazol-4(5H)-one diastereomer a], 3.16 nM.
With `CC1(Cc2ccc(Cl)cc2)OC(N2CCC3(CC2)OC(=O)c2ccccc23)=NC1=O` (single isomer, unassigned; enantiomer b) [Example 81, 1′-[5-(4-Chlorobenzyl)-5-methyl-4-oxo-4,5-dihydro-1,3-oxazol-2-yl]-3H-spiro[2-benzofuran-1,4′-piperidin]-3-one enantiomer B] the figure was 501 nM.
With `CC1(C)OC2(CCN(C3=NC(=O)C(Cc4ccccc4)O3)CC2)c2ccccc21` (stereo not drawn) [Example 26, 5-Benzyl-2-(3,3-dimethyl-1′H,3H-spiro[2-benzofuran-1,4′-piperidin]-1′-yl)-1,3-oxazol-4(5H)-one], the Ki was 0.631 nM.
To `CC(=O)O[C@H]1CC2(C[C@H]1OC(C)=O)OC(N1CCC3(CC1)OCc1ccccc13)=NC2=O` (single isomer, unassigned; diastereomer b) [Example 121, 4-Oxo-2-(1′H,3H-spiro[2-benzofuran-1,4′-piperidin]-1′-yl)-1-oxa-3-azaspiro[4.4]non-2-ene-7,8-diyl diacetate diastereomer b] belongs 6.31 nM; to `CCC1(Cc2ccccc2)OC(N2CCC3(CC2)OCc2ccccc23)=NC1=O` (stereo not drawn) [Example 74, 5-Benzyl-5-ethyl-2-(1′H,3H-spiro[2-benzofuran-1,4′-piperidin]-1′-yl)-1,3-oxazol-4(5H)-one], 10 nM.
